Laboratory results published in patent publication US11992011B2, “Compounds for controlling plant pathogens” (VIB VZW, priority 2017, dated 2024).
pIC50: −log10 of the molar value.

Legend:
[1] = test system: Arabidopsis thaliana seedlings; conditions: continuous exposure; Steenackers et al. 2016; cited from earlier work
[2] = test system: Meloidogyne incognita; test: Meloidogyne incognita infection in tomato cv. Moneymaker (Example 7); format: in vivo
Description: Tomato seeds, cv. Moneymaker (Vreeken's Zaden, Dordrecht, the Netherlands) were sown on autoclaved potting soil coveed with polyethylene film and placed at 24° C. for eight days. Seedlings were then transferred to individual SAP-filled pots and placed in a growth chamber at 24° C. Plants were watered three times per week with 25 ml of quarter-strength Hoagland solution for the first two weeks and half-strength thereafter.
M. incognita was extracted from infected tomato plants (cv. Moneymaker) roots grown in potting soil at 24° C. Nematodes were collected, counted and inoculated using the same procedure described for M. graminicola above.
(§1) Unless otherwise mentioned, all chemicals for nematode experiments were applied as a foliar spray consisting of the target compound at a concentration of 300 μM together with 0.1% (v/v) Tween 20 surfactant (Calbiochem) in distilled water. Again unless otherwise mentioned, all treatments for the nematode experiments were carried out three times: one and eight days before pathogen inoculation and seven days after pathogen inoculation. In all cases, plants were sprayed until run-off with an atomizer.
Infection experiments with M. incognita were performed in the same manner as those with M. graminicola, except that plants were harvested 31 days after inoculation instead of 14 days. At this point, the plants were phenotyped by measuring the root length with a ruler and in some experiments by measuring leaf area using the EasyLeafArea software (Easlon and Bloom, 2014) and by determining shoot dry mass after 72 hours of drying in an oven at 70° C. Galls were stained and counted as described above.
Additionally, a possible dose response effect was investigated by applying PA at three concentrations: 100, 400 and 700 μM.

[3] = test system: Pratylenchus penetrans; test: Pratylenchus penetrans infection in wheat cv. Sahara (Example 10); format: in vivo; conditions: PA foliar spray
Description: For Examples 1, 5 and 10, seeds of the winter wheat cultivar Sahara (Aveve Agrarisch, Landen, Belgium) were used. Seeds were washed in a 10% ethanol solution to remove any residual traces of fungicide and then germinated on wet paper at room temperature for four days; seeds were transferred to SAP tubes and placed in a growth chamber (25° C., 16 hours per day of light). Plants were watered with 8 ml of half-strength Hoagland solution every two days for the first ten days and with 8 ml of full strength Hoagland solution every two days afterwards.
A pure culture of P. penetrans grown on carrot disks was kindly provided by Giuseppi Lucarelli (Horto Service, Noicattaro, Italy). The nematodes were multiplied by inoculating approximately 100 nematodes on a sterilized carrot disk, placing this disk in a sealed petri dish and incubating the dish at 24° C. for six weeks in the dark. Carrots were sterilized by washing and peeling them, then dipping them in ethanol and finally burning the ethanol off in a Bunsen burner.
as §1
Infection experiments with P. penetrans were performed by inoculating host plants 14 days after transfer to SAP by introducing 500 nematodes to their root system using a micro pipette. Plants were harvested 31 days after inoculation. At this point, the plants were phenotyped. Lesions were counted manually using a magnifying glass after washing and spreading open the root system. Nematodes were counted by macerating the root systems with a kitchen blender, placing a root system in 30 ml of autoclaved tap water for 24 hours and finally counting the number of nematodes in four 500 μl aliquots from each 30 ml root suspension under a binocular microscope.

[4] = infected wheat, mean ± SD, n = 8

## O=C(O)/C=C/c1ccc2c(c1)OCO2 [MDCA, 3,4-methylenedioxycinnamic acid]
[1]
  pIC50: 5.29

## O=C(O)c1ccc2c(c1)OCO2 [PA, Piperonylic acid]
[2]; 100, 400 and 700 μM foliar spray
  negative effects on growth or development of the tomato plants: no negative effects on growth or development
[2]; tomato, 100 μM compared with 400 μM
  Percent difference of mean number of galls per root system, PA100 vs. PA400: −9%
[2]; tomato, 100 μM compared with 700 μM
  Percent difference of mean number of galls per root system, PA100 vs. PA700: −2%
[2]; tomato, 400 μM compared with 700 μM
  Percent difference of mean number of galls per root system, PA400 vs. PA700: +11%
[2]; tomato, foliar spray 100 μM
  Percent difference of mean number of galls per root system, PA100 vs. CON: −54%
[2]; tomato, foliar spray 400 μM
  Percent difference of mean number of galls per root system, PA400 vs. CON: −50%
[2]; tomato, foliar spray 700 μM
  Percent difference of mean number of galls per root system, PA700 vs. CON: −55%
[3]; [4]
  Number of lesions: 14.4 ± 6.8
  Number of nematodes per root system: 165.6 ± 61.1
[3]; wheat, vs control
  change of mean number of P. penetrans nematodes found in the root system: −32%
  change of mean number of root lesions in the host plant: −39%
